Assay results as given in the supplement of paper PMC10627819.

Legend:
[1] = system: S. aureus Newman; assay: fitness (endpoint OD595 vs no drug) (fraction); higher = more growth; settings: one replicate
How it was run: (§1)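 With the first reading as background, OD595 was measured every 30 min for 14 h in 384-well plates kept at 37 °C and inoculated at OD595 0.01. TSB, LB Lennox or CY was the medium. Fitness is the optical density at the transition into stationary phase divided by the robust mean of no-drug control wells, with a cap of 1.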

[2] = system: B. subtilis 168; assay: Bliss interaction score (quartile over a dose matrix) (fitness difference); higher = more antagonism (negative = synergy)
How it was run: (§2)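 Fitness was defined as normalised growth: OD595 at the start of stationary phase divided by the plate's robust no-drug mean and capped at 1. Single-drug fitness was inferred from combination measurements. The Bliss score is observed fitness minus the product of the single-drug values, summarised by quartiles across technical, biological and donor/recipient replicates.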

[3] = system: S. aureus DSM 20231; assay: as above
How it was run: as §2

[4] = system: S. aureus Newman; assay: as above
How it was run: as §2

[5] = system: S. pneumoniae D39V; assay: as above
How it was run: as §2

[6] = system: S. pneumoniae D39V; assay: fitness (endpoint OD595 vs no drug) (fraction); higher = more growth
How it was run: as §1

[7] = system: B. subtilis 168; assay: as above
How it was run: as §1
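Throughout, for Bliss interaction score (quartile over a dose matrix): first quartile when negative (synergy) and third quartile when positive (antagonism).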
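Throughout, for fitness (endpoint OD595 vs no drug): OD595 on entry to stationary phase over no-drug wells; at most 1.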

CO/N=C(\C(=O)N[C@@H]1C(=O)N2C(C(=O)O)=C(COC(N)=O)CS[C@H]12)c1ccco1 [Cefuroxime] + Cn1nnc(-c2ccc(-c3ccc(N4C[C@H](CO)OC4=O)cc3F)cn2)n1 [Tedizolid]
fitness, [1]
Settings	first compound 0.04875 µg/mL	first compound 0.0975 µg/mL	first compound 0.195 µg/mL
partner 0.0625 µg/mL	0.614	0.641	0.517
partner 0.125 µg/mL	0.0599	0.0707	0.0587
partner 0.25 µg/mL	0.496	0.513	0.425

Settings	Bliss interaction score
[2]	0.136
[3]	-0.223
[4]	0.259
[5]	0.026

Cc1ncc([N+](=O)[O-])n1CCO [Metronidazole] + C/C(=C\C(=O)OCCCCCCCCC(=O)O)C[C@@H]1OC[C@H](C[C@@H]2O[C@H]2[C@@H](C)[C@H](C)O)[C@@H](O)[C@H]1O [Pseudomonic acid]
fitness
Settings	first compound 0.625 µg/mL	first compound 1.073 µg/mL	first compound 1.25 µg/mL	first compound 2.145 µg/mL	first compound 2.5 µg/mL	first compound 4.29 µg/mL	first compound 5 µg/mL
[1], partner 0.0313 µg/mL	0.0517	–	0.0718	–	0.0759	–	–
[1], partner 0.0625 µg/mL	0.0386	–	0.0347	–	0.0304	–	–
[1], partner 0.125 µg/mL	0.0386	–	0.0514	–	0.0492	–	–
[6], partner 0.03 µg/mL	–	0.903	0.932	0.859	0.96	0.877	0.92
[6], partner 0.06 µg/mL	–	–	0.816	–	0.829	0.81	0.816
[6], partner 0.12 µg/mL	–	0.529	0.57	0.632	0.596	0.575	0.588

Settings	Bliss interaction score
[2]	-0.0197
[3]	0.0111
[4]	0.0128
[5]	0.0684

O=C(O)c1cn(C2CC2)c2cc(N3CCNCC3)c(F)cc2c1=O [Ciprofloxacin] + CCC(C)C1C(=O)NC(=C)C(=O)NC(C(=O)NC(CSCC(C(=O)N1)NC(=O)/C(=C/C)/NC(=O)C(C(C)CC)N)C(=O)NC2C(SCC(NC(=O)CNC(=O)C3CCCN3C2=O)C(=O)NC(CCCCN)C(=O)NC4C(SCC(NC(=O)CNC(=O)C(NC(=O)C(NC(=O)C(NC(=O)CNC4=O)C)CC(C)C)CCSC)C(=O)NC(CC(=O)N)C(=O)NC(CCSC)C(=O)NC(CCCCN)C(=O)NC5C(SCC6C(=O)NC(C(=O)NC(CSC(C(C(=O)N6)NC(=O)C(NC5=O)C)C)C(=O)NC(CO)C(=O)NC(C(C)CC)C(=O)NC(CC7=CN=CN7)C(=O)NC(C(C)C)C(=O)NC(=C)C(=O)NC(CCCCN)C(=O)O)CC8=CN=CN8)C)C)C)CC(C)C [Nisin]
main component drawn
Settings	fitness
[6], first compound 0.125 µg/mL, partner 0.4275 µg/mL	0.954
[6], first compound 0.125 µg/mL, partner 0.855 µg/mL	0.825
[6], first compound 0.125 µg/mL, partner 1.6 µg/mL	0.0088
[6], first compound 0.125 µg/mL, partner 1.71 µg/mL	0.0552
[6], first compound 0.125 µg/mL, partner 3.2 µg/mL	0.0108
[6], first compound 0.125 µg/mL, partner 6.4 µg/mL	0.005
[6], first compound 0.25 µg/mL, partner 0.4275 µg/mL	0.883
[6], first compound 0.25 µg/mL, partner 0.855 µg/mL	0.398
[6], first compound 0.25 µg/mL, partner 1.71 µg/mL	0.0414
[6], first compound 0.5 µg/mL, partner 0.4275 µg/mL	0.614
[6], first compound 0.5 µg/mL, partner 0.855 µg/mL	0.173
[6], first compound 0.5 µg/mL, partner 1.6 µg/mL	0.0116
[6], first compound 0.5 µg/mL, partner 1.71 µg/mL	0.0558
[6], first compound 0.5 µg/mL, partner 3.2 µg/mL	0.043
[7], first compound 0.0098 µg/mL, partner 0.5 µg/mL	0.838
[7], first compound 0.0098 µg/mL, partner 1 µg/mL	0.814
[7], first compound 0.0098 µg/mL, partner 2 µg/mL	0.568
[7], first compound 0.0195 µg/mL, partner 0.5 µg/mL	0.702
[7], first compound 0.0195 µg/mL, partner 1 µg/mL	0.591
[7], first compound 0.0195 µg/mL, partner 2 µg/mL	0.427
[7], first compound 0.039 µg/mL, partner 0.5 µg/mL	0.276
[7], first compound 0.039 µg/mL, partner 1 µg/mL	0.129
[7], first compound 0.039 µg/mL, partner 2 µg/mL	0.031

fitness, one replicate, main component drawn
Settings	partner 1.25 µg/mL	partner 1.6 µg/mL	partner 2.5 µg/mL	partner 3.2 µg/mL	partner 4 µg/mL	partner 5 µg/mL	partner 6.4 µg/mL	partner 8 µg/mL	partner 16 µg/mL
[6], first compound 0.25 µg/mL	–	0	–	0	–	–	0	–	–
[7], first compound 0.0098 µg/mL	0.919	0.726	0.577	0.0245	0.368	0.0657	0.0606	0.0414	0.0186
[7], first compound 0.0195 µg/mL	0.795	0.575	0.381	0.0411	0.223	0.035	0.0488	0.0139	0.0115
[7], first compound 0.039 µg/mL	0.256	0.0309	0.0565	0.0347	0.0357	0.061	0.0335	0.0446	0.0305

main component drawn
Settings	Bliss interaction score
[2]	-0.0496
[3]	-0.123
[4]	-0.059
[5]	-0.0601

C[C@H]1c2cccc(O)c2C(=O)C2=C(O)[C@]3(O)C(=O)C(C(N)=O)=C(O)[C@@H](N(C)C)[C@@H]3[C@@H](O)[C@@H]21 [Doxycycline] + C[C@@H]1O[C@@H]1P(=O)(O)O [Fosfomycin]
fitness
Settings	partner 1.25 µg/mL	partner 1.562 µg/mL	partner 2.5 µg/mL	partner 3.124 µg/mL	partner 5 µg/mL	partner 6.248 µg/mL
[6], first compound 0.0155 µg/mL	0.894	–	0.862	–	0.791	–
[6], first compound 0.031 µg/mL	0.799	–	0.804	–	0.742	–
[7], first compound 0.02 µg/mL	–	0.752	–	0.645	–	0.556
[7], first compound 0.04 µg/mL	–	0.699	–	0.56	–	0.419
[7], first compound 0.08 µg/mL	–	0.5	–	0.364	–	0.253

fitness, [6], one replicate
Settings	partner 1.25 µg/mL	partner 2.5 µg/mL	partner 5 µg/mL
first compound 0.003875 µg/mL	0.969	0.883	0.753
first compound 0.00775 µg/mL	0.97	0.915	0.814

Settings	Bliss interaction score
[2]	0.131
[3]	-0.153
[4]	-0.113
[5]	-0.096

C[C@H]1c2cccc(O)c2C(=O)C2=C(O)[C@]3(O)C(=O)C(C(N)=O)=C(O)[C@@H](N(C)C)[C@@H]3[C@@H](O)[C@@H]21 [Doxycycline] + CC(=O)NC[C@H]1CN(c2ccc(N3CCOCC3)c(F)c2)C(=O)O1 [Linezolid]
fitness, one replicate
Settings	first compound 0.003875 µg/mL	first compound 0.00775 µg/mL	first compound 0.02 µg/mL	first compound 0.031 µg/mL	first compound 0.04 µg/mL	first compound 0.062 µg/mL	first compound 0.08 µg/mL
[6], partner 0.2 µg/mL	0.796	0.774	–	0.668	–	0.465	–
[6], partner 0.4 µg/mL	0.7	0.65	–	0.4	–	0.241	–
[6], partner 0.8 µg/mL	0.353	0.37	–	0.24	–	0.116	–
[7], partner 0.0625 µg/mL	–	–	0.775	–	0.51	–	0.0619

Settings	fitness
[6], first compound 0.0155 µg/mL, partner 0.105 µg/mL	0.702
[6], first compound 0.0155 µg/mL, partner 0.2 µg/mL	0.776
[6], first compound 0.0155 µg/mL, partner 0.21 µg/mL	0.595
[6], first compound 0.0155 µg/mL, partner 0.4 µg/mL	0.575
[6], first compound 0.0155 µg/mL, partner 0.42 µg/mL	0.406
[6], first compound 0.0155 µg/mL, partner 0.8 µg/mL	0.325
[6], first compound 0.031 µg/mL, partner 0.105 µg/mL	0.694
[6], first compound 0.031 µg/mL, partner 0.21 µg/mL	0.602
[6], first compound 0.031 µg/mL, partner 0.42 µg/mL	0.297
[6], first compound 0.062 µg/mL, partner 0.105 µg/mL	0.606
[6], first compound 0.062 µg/mL, partner 0.21 µg/mL	0.477
[6], first compound 0.062 µg/mL, partner 0.42 µg/mL	0.207
[7], first compound 0.02 µg/mL, partner 0.5 µg/mL	0.0524
[7], first compound 0.04 µg/mL, partner 0.5 µg/mL	0.0497
[7], first compound 0.08 µg/mL, partner 0.25 µg/mL	0.0313
[7], first compound 0.08 µg/mL, partner 0.5 µg/mL	0.0418

Settings	Bliss interaction score
[2]	-0.137
[3]	-0.0188
[4]	-0.0282
[5]	-0.197

O=C(O)c1cn(C2CC2)c2cc(N3CCNCC3)c(F)cc2c1=O [Ciprofloxacin] + CN(C)C(=O)C(CCN1CCC(O)(c2ccc(Cl)cc2)CC1)(c1ccccc1)c1ccccc1 [Loperamide]
Settings	fitness
[6], first compound 0.125 µg/mL, partner 17.14 µg/mL	0.944
[6], first compound 0.125 µg/mL, partner 20 µg/mL	≥ 1
[6], first compound 0.125 µg/mL, partner 34.28 µg/mL	0.923
[6], first compound 0.125 µg/mL, partner 40 µg/mL	≥ 1
[6], first compound 0.25 µg/mL, partner 17.14 µg/mL	0.887
[6], first compound 0.25 µg/mL, partner 34.28 µg/mL	0.886
[6], first compound 0.5 µg/mL, partner 17.14 µg/mL	0.763
[6], first compound 0.5 µg/mL, partner 20 µg/mL	0.883
[6], first compound 0.5 µg/mL, partner 34.28 µg/mL	0.731
[6], first compound 0.5 µg/mL, partner 40 µg/mL	0.865
[7], first compound 0.0098 µg/mL, partner 25 µg/mL	0.855
[7], first compound 0.0195 µg/mL, partner 25 µg/mL	0.643
[7], first compound 0.039 µg/mL, partner 25 µg/mL	0.038
[7], first compound 0.039 µg/mL, partner 50 µg/mL	0.0608
[7], first compound 0.039 µg/mL, partner 100 µg/mL	0.0402

fitness, [6], one replicate
Settings	partner 20 µg/mL	partner 40 µg/mL	partner 68.57 µg/mL	partner 80 µg/mL
first compound 0.125 µg/mL	–	–	0.952	–
first compound 0.25 µg/mL	0.994	≥ 1	0.964	0.531
first compound 0.5 µg/mL	–	–	0.886	–

Settings	Bliss interaction score
[2]	0.199
[3]	-0.258
[4]	-0.0992
[5]	0.109

C[C@H]1c2cccc(O)c2C(=O)C2=C(O)[C@]3(O)C(=O)C(C(N)=O)=C(O)[C@@H](N(C)C)[C@@H]3[C@@H](O)[C@@H]21 [Doxycycline] + CN[C@@H]1[C@H](O[C@H]2[C@H](O[C@H]3[C@H](O)[C@@H](O)[C@H](N=C(N)N)[C@@H](O)[C@@H]3N=C(N)N)O[C@@H](C)[C@]2(O)C=O)O[C@@H](CO)[C@H](O)[C@H]1O [Streptomycin]
fitness
Settings	partner 2 µg/mL	partner 4 µg/mL	partner 8 µg/mL
[6], first compound 0.0155 µg/mL	0.9	0.895	0.891
[6], first compound 0.031 µg/mL	0.866	0.859	0.837
[6], first compound 0.062 µg/mL	0.72	0.714	0.735
[7], first compound 0.02 µg/mL	0.902	0.772	–
[7], first compound 0.04 µg/mL	0.766	0.678	–
[7], first compound 0.08 µg/mL	0.497	–	–

[6], one replicate
Settings	fitness
first compound 0.003875 µg/mL, partner 2 µg/mL	0.955
first compound 0.003875 µg/mL, partner 4 µg/mL	≥ 1
first compound 0.003875 µg/mL, partner 8 µg/mL	0.977
first compound 0.00775 µg/mL, partner 2 µg/mL	0.928
first compound 0.00775 µg/mL, partner 4 µg/mL	0.952
first compound 0.00775 µg/mL, partner 8 µg/mL	0.937
first compound 0.0155 µg/mL, partner 16 µg/mL	0.741
first compound 0.031 µg/mL, partner 16 µg/mL	0.671
first compound 0.062 µg/mL, partner 16 µg/mL	0.57

Settings	Bliss interaction score
[2]	0.251
[3]	0.0508
[4]	-0.016
[5]	-0.0673
